The text below walks through data of patent publication US20250296971A1, “GASTRIC INHIBITORY PEPTIDE RECEPTOR LIGANDS” (priority 2021, published 2025).

*1 amine or outer side, *2 acyl side, *3 side chain or, on linkers, in order; H or OH if unused. Where a SMILES comes first, the peptide text is derived from it. Bridges are numbered along the chain shown (N, C = ends). [ ]: non-standard residue; d: D form. Trp(5-Cl) = N[C@@H](Cc1c[nH]c2ccc(Cl)cc12)C(=O)O; Pyridine(2,6-diCH2) = c1cc(C[*:1])nc(C[*:2])c1; Pro(trans-4-F) = O=C(O)[C@@H]1C[C@@H](F)CN1; N(CH2CH2COOH)Gly = O=C(O)CCNCC(=O)O; Cya = N[C@@H](CS(=O)(=O)O)C(=O)O; Hyp = O=C(O)[C@@H]1C[C@@H](O)CN1; hSer = N[C@@H](CCO)C(=O)O; Nphe = O=C(O)CNCc1ccccc1; Thp = NC1(C(=O)O)CCOCC1; Nleu = CC(C)CNCC(=O)O; Nlys = NCCCCNCC(=O)O Bounds are passed on as bounds.

In this assay the target is T1, GIPR (CHO-K1-hGIPR cells) (Homo sapiens, UniProt P48546).
T1 construct: host or cells: CHO-K1
T1 sequence (P48546 22-466): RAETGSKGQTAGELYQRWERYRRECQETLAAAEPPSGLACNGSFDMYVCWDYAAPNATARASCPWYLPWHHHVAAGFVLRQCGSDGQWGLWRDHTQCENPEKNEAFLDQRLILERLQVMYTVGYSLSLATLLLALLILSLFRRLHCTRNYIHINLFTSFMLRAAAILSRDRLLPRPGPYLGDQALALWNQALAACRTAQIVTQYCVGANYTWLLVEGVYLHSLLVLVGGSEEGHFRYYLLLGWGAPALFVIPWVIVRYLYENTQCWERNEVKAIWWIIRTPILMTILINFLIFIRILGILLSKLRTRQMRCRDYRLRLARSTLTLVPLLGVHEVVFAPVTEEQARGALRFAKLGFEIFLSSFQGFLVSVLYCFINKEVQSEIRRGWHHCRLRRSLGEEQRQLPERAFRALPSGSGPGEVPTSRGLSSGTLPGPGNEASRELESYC
Nature of the assay: FACS binding assay. The note with it: competition with 20 nM GIP-057, 4° C., 1 hour, read-out: pIC50 Category (converted). In outline:
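Peptide binding read by flow cytometry as APC-channel median fluorescence, fitted with a four-parameter logistic to yield EC50 or IC50. Cells were hGIPR-transfected CHO-K1 in PBS with 1% FCS, detected with 1 μg/mL APC-streptavidin, 30 min on ice.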
Background: A flow cytometer gives signals particle by particle.
For the compound `CC[C@H](C)[C@@H]1NC(=O)[C@H](CC(C)C)NC(=O)C2(CCOCC2)NC(=O)[C@@H](NC(=O)[C@@H](CC(C)C)NC(=O)[C@H](CCC(=O)O)NC(=O)CN(CC(C)C)C(=O)[C@H](Cc2c[nH]c3ccc(Cl)cc23)NC(=O)[C@H](Cc2c[nH]c3ccccc23)NC(=O)[C@H](CC(=O)O)NC(C)=O)CSCc2cccc(n2)CSC[C@@H](C(N)=O)NC1=O` [GIP-184, Ac-Asp-Trp-5Clw-Nleu-Glu-leu-[Cys(2Lut)-Thp-Leu-Ile-Cys]-NH2] (Ac-DW[Trp(5-Cl)][Nleu]E[dL]C[Thp]LIC-NH2; linker 7-11 via Pyridine(2,6-diCH2)), the IC50 was under 10 nM. For `CC[C@H](C)[C@@H]1NC(=O)[C@H](CC(C)C)NC(=O)C2(CCOCC2)NC(=O)[C@@H](NC(=O)[C@@H](CC(C)C)NC(=O)[C@H](CCC(=O)O)NC(=O)CN(Cc2ccccc2)C(=O)[C@H](Cc2c[nH]c3ccc(Cl)cc23)NC(=O)[C@H](Cc2c[nH]c3ccccc23)NC(=O)[C@H](CC(=O)O)NC(C)=O)CSCc2cccc(n2)CSC[C@@H](C(N)=O)NC1=O` [GIP-185, Ac-Asp-Trp-5Clw-Nphe-Glu-leu-[Cys(2Lut)-Thp-Leu-Ile-Cys]-NH2] (Ac-DW[Trp(5-Cl)][Nphe]E[dL]C[Thp]LIC-NH2; linker 7-11 via Pyridine(2,6-diCH2)), the IC50 is under 10 nM. For `CC[C@H](C)[C@@H]1NC(=O)[C@H](CC(C)C)NC(=O)C2(CCOCC2)NC(=O)[C@@H](NC(=O)[C@@H](CC(C)C)NC(=O)[C@H](CCC(=O)O)NC(=O)CN(CCCCN)C(=O)[C@H](Cc2c[nH]c3ccc(Cl)cc23)NC(=O)[C@H](Cc2c[nH]c3ccccc23)NC(=O)[C@H](CC(=O)O)NC(C)=O)CSCc2cccc(n2)CSC[C@@H](C(N)=O)NC1=O` [GIP-186, Ac-Asp-Trp-5Clw-Nlys-Glu-leu-[Cys(2Lut)-Thp-Leu-Ile-Cys]-NH2] (Ac-DW[Trp(5-Cl)][Nlys]E[dL]C[Thp]LIC-NH2; linker 7-11 via Pyridine(2,6-diCH2)), the IC50 was under 10 nM. The result for `CC[C@H](C)[C@@H]1NC(=O)[C@H](CC(C)C)NC(=O)C2(CCOCC2)NC(=O)[C@@H](NC(=O)[C@@H](CC(C)C)NC(=O)[C@H](CCC(=O)O)NC(=O)[C@@H]2C[C@@H](F)CN2C(=O)[C@H](Cc2c[nH]c3ccc(Cl)cc23)NC(=O)[C@H](Cc2c[nH]c3ccccc23)NC(=O)[C@H](CC(=O)O)NC(C)=O)CSCc2cccc(n2)CSC[C@@H](C(N)=O)NC1=O` [GIP-187, Ac-Asp-Trp-5Clw-4Tfp-Glu-leu-[Cys(2Lut)-Thp-Leu-Ile-Cys]-NH2] (Ac-DW[Trp(5-Cl)][Pro(trans-4-F)]E[dL]C[Thp]LIC-NH2; linker 7-11 via Pyridine(2,6-diCH2)) reads under 10 nM; that for `CC[C@H](C)[C@@H]1NC(=O)[C@H](CC(C)C)NC(=O)C2(CCOCC2)NC(=O)[C@@H](NC(=O)[C@@H](CC(C)C)NC(=O)[C@H](CCC(=O)O)NC(=O)[C@@H]2C[C@@H](O)CN2C(=O)[C@H](Cc2c[nH]c3ccc(Cl)cc23)NC(=O)[C@H](Cc2c[nH]c3ccccc23)NC(=O)[C@H](CS(=O)(=O)O)NC(C)=O)CSCc2cccc(n2)CSC[C@@H](C(N)=O)NC1=O` [GIP-189, Ac-Cya-Trp-5Clw-Hyp-Glu-leu-[Cys(2Lut)-Thp-Leu-Ile-Cys]-NH2] (Ac-[Cya]W[Trp(5-Cl)][Hyp]E[dL]C[Thp]LIC-NH2; linker 7-11 via Pyridine(2,6-diCH2)), under 10 nM; that for `CC[C@H](C)[C@@H]1NC(=O)[C@H](CC(C)C)NC(=O)C2(CCOCC2)NC(=O)[C@@H](NC(=O)[C@@H](CC(C)C)NC(=O)[C@H](CCC(=O)O)NC(=O)[C@@H]2C[C@@H](O)CN2C(=O)[C@H](Cc2c[nH]c3ccc(Cl)cc23)NC(=O)[C@H](Cc2c[nH]c3ccccc23)NC(=O)[C@H](CC(N)=O)NC(C)=O)CSCc2cccc(n2)CSC[C@@H](C(N)=O)NC1=O` [GIP-190, Ac-Asn-Trp-5Clw-Hyp-Glu-leu-[Cys(2Lut)-Thp-Leu-Ile-Cys]-NH2] (Ac-NW[Trp(5-Cl)][Hyp]E[dL]C[Thp]LIC-NH2; linker 7-11 via Pyridine(2,6-diCH2)), under 10 nM. Next, `CC[C@H](C)[C@@H]1NC(=O)[C@H](CC(C)C)NC(=O)C2(CCOCC2)NC(=O)[C@@H](NC(=O)[C@@H](CC(C)C)NC(=O)[C@H](CCC(=O)O)NC(=O)[C@@H]2C[C@@H](O)CN2C(=O)[C@H](Cc2c[nH]c3ccc(Cl)cc23)NC(=O)[C@H](Cc2c[nH]c3ccccc23)NC(=O)[C@H](CCC(=O)O)NC(C)=O)CSCc2cccc(n2)CSC[C@@H](C(N)=O)NC1=O` [GIP-191, Ac-Asn-Trp-5Clw-Hyp-Glu-leu-[Cys(2Lut)-Thp-Leu-Ile-Cys]-NH2] (Ac-EW[Trp(5-Cl)][Hyp]E[dL]C[Thp]LIC-NH2; linker 7-11 via Pyridine(2,6-diCH2)): under 10 nM; `CC[C@H](C)[C@@H]1NC(=O)[C@H](CC(C)C)NC(=O)C2(CCOCC2)NC(=O)[C@@H](NC(=O)[C@@H](CC(C)C)NC(=O)[C@H](CC(=O)O)NC(=O)[C@@H]2C[C@@H](O)CN2C(=O)[C@H](Cc2c[nH]c3ccc(Cl)cc23)NC(=O)[C@H](Cc2c[nH]c3ccccc23)NC(=O)[C@H](CC(=O)O)NC(C)=O)CSCc2cccc(n2)CSC[C@@H](C(N)=O)NC1=O` [GIP-192, Ac-Asp-Trp-5Clw-Hyp-Asp-leu-[Cys(2Lut)-Thp-Leu-Ile-Cys]-NH2] (Ac-DW[Trp(5-Cl)][Hyp]D[dL]C[Thp]LIC-NH2; linker 7-11 via Pyridine(2,6-diCH2)): under 10 nM. Next, `CC[C@H](C)[C@@H]1NC(=O)[C@H](CC(C)C)NC(=O)C2(CCOCC2)NC(=O)[C@@H](NC(=O)[C@@H](CC(C)C)NC(=O)[C@H](CCC(N)=O)NC(=O)[C@@H]2C[C@@H](O)CN2C(=O)[C@H](Cc2c[nH]c3ccc(Cl)cc23)NC(=O)[C@H](Cc2c[nH]c3ccccc23)NC(=O)[C@H](CC(=O)O)NC(C)=O)CSCc2cccc(n2)CSC[C@@H](C(N)=O)NC1=O` [GIP-193, Ac-Asp-Trp-5Clw-Hyp-Gln-leu-[Cys(2Lut)-Thp-Leu-Ile-Cys]-NH2] (Ac-DW[Trp(5-Cl)][Hyp]Q[dL]C[Thp]LIC-NH2; linker 7-11 via Pyridine(2,6-diCH2)): under 10 nM; `CC[C@H](C)[C@@H]1NC(=O)[C@H](CC(C)C)NC(=O)C2(CCOCC2)NC(=O)[C@@H](NC(=O)[C@@H](CC(C)C)NC(=O)[C@H](CCC(=O)O)NC(=O)[C@@H]2C[C@@H](O)CN2C(=O)[C@H](Cc2c[nH]c3ccc(Cl)cc23)NC(=O)[C@H](Cc2c[nH]c3ccccc23)NC(=O)[C@H](CCO)NC(C)=O)CSCc2cccc(n2)CSC[C@@H](C(N)=O)NC1=O` [GIP-195, Ac-Hse-Trp-5Clw-Hyp-Glu-leu-[Cys(2Lut)-Thp-Leu-Ile-Cys]-NH2] (Ac-[hSer]W[Trp(5-Cl)][Hyp]E[dL]C[Thp]LIC-NH2; linker 7-11 via Pyridine(2,6-diCH2)): under 10 nM; `CC[C@H](C)[C@@H]1NC(=O)[C@H](CC(C)C)NC(=O)C2(CCOCC2)NC(=O)[C@@H](NC(=O)[C@@H](CC(C)C)NC(=O)[C@H](CCC(=O)O)NC(=O)CN(CCC(=O)O)C(=O)[C@H](Cc2c[nH]c3ccc(Cl)cc23)NC(=O)[C@H](Cc2c[nH]c3ccccc23)NC(=O)[C@H](CC(=O)O)NC(C)=O)CSCc2cccc(n2)CSC[C@@H](C(N)=O)NC1=O` [GIP-196, Ac-Asp-Trp-5Clw-Nglu-Glu-leu-[Cys(2Lut)-Thp-Leu-Ile-Cys]-NH2] (Ac-DW[Trp(5-Cl)][N(CH2CH2COOH)Gly]E[dL]C[Thp]LIC-NH2; linker 7-11 via Pyridine(2,6-diCH2)): under 10 nM.
